Results reported in ChEMBL document CHEMBL3507680, “University of Dundee, Gates Library screen for HepG2 cell viability”.

Assay: Human HepG2 cell viability assay in 384 well format
Type: toxicity, cell-based
Design: dose 125 nL, time 70.5 hour; concentration not given beside the values
Details: HepG2 cells, read-out: Inhibition

SMILES | cytotoxicity at 70.5 h [%]
Cc1ccc(CN2CCc3c(C(=O)N(C)C)n[nH]c3C2)o1 | -8.34
CCN(C)C1COC2(CCN(C(=O)c3ccc4[nH]ccc4c3)CC2)C1 (stereo not drawn) | -11
O=C(Cc1ccco1)N1CCC2(CCOCC2COCC2CC2)CC1 (stereo not drawn) | -4.14
CN(C)C(=O)N1CC(=O)NCC12CCN(C(=O)c1ccco1)C2 (stereo not drawn) | -7.28
CS(=O)(=O)NCc1cncc2c1CCN(C(=O)c1ccccn1)C2 | -12.5
CC(C)NC(=O)C1Cc2nc(-c3ccsc3)sc2N1CC1CC1 (stereo not drawn) | -6.43
Cc1cccc(CN2CCC3(CCCN(Cc4cnn(C)c4)C3)C2=O)n1 (stereo not drawn) | -18.3
COCC1CN(C(=O)c2ccccn2)Cc2nccn2C1 (stereo not drawn) | -11.1
Cn1cc(CN2CCCC3(CCN(Cc4ccncc4)C3=O)C2)cn1 (stereo not drawn) | -10.1
CCCNC(=O)c1cc2c(s1)CCN2C(=O)c1ccccc1 | 14.2
Cc1cncc(C(=O)N2CCc3ncc(Cn4cccn4)n3CC2)c1 | 22.9
COCC(=O)N1Cc2nccn2CC(Cn2ncccc2=O)C1 (stereo not drawn) | -10
Cc1noc(C)c1CN1CCC2(CC1)NC(=O)CC2c1cnn(C)c1 (stereo not drawn) | -8.52
O=C(c1ccc[nH]1)N1CCN(Cc2ccncc2)c2ncccc2C1 | -11.6
O=C(c1ccco1)N1Cc2nccn2CC(Cn2ncccc2=O)C1 (stereo not drawn) | -6.66
O=C(c1ccoc1)N1CCc2ncc(Cn3cccn3)n2CC1 | -7.98
Cn1cc(C2CC(=O)NC23CCN(Cc2nccs2)CC3)cn1 (stereo not drawn) | -9.24
COCC(=O)N1CC[C@H]2C[C@H](c3nnc(C4CC4)o3)O[C@@H]2C1 | -8.34
Cc1ccc(C(=O)N2CCc3ncc(Cn4cccn4)n3CC2)cn1 | -6.29
CC(C)CO[C@@H]1CC[C@H]2[C@H]1OCCN2S(=O)(=O)C1CC1 | 12.4
NC(=O)N1Cc2nccn2CC(Cn2ncccc2=O)C1 (stereo not drawn) | 1.65
O=C(N1CCCC1)N1Cc2nccn2CC(Cn2ncccc2=O)C1 (stereo not drawn) | -0.168
c1cnc(NC[C@H]2OC[C@@H]3CCN(Cc4ccncc4)C[C@@H]32)nc1 | 17.4
CN(Cc1cccnc1)[C@@H]1CN(c2ccccn2)[C@@H]2CCCO[C@H]12 | -9.04
CNC(=O)[C@H]1C[C@@H]2CN(C(=O)c3occc3C)C[C@@H]2N1S(C)(=O)=O | -5.67
CC1c2ncc(Cn3cncn3)n2CCN1C(=O)c1cscn1 (stereo not drawn) | 20.8

SMILES | cytotoxicity at 70.5 h [%]
COCCN1Cc2ccccc2C2(CCN(S(C)(=O)=O)CC2)C1 | -5.3
O=C(C1CCOC1)N1CCN(Cc2ccncc2)c2ncccc2C1 (stereo not drawn) | -9.12
O=C(c1cnccn1)N1CCC2(CCN(Cc3ccsc3)CC2)CC1 | -2.48
O=C(c1cnccn1)N1CCC2(CCN(Cc3ccsc3)C2)CC1 | -5.07
O=C(N1CCCO1)[C@@]12CCO[C@@H]1CCN(Cc1ccsc1)C2 | -6.2
Cc1cnc(N2CCc3c(CN(C)Cc4ccco4)cncc3C2)nc1 | -5.82
Cc1occc1C(=O)N1CCn2c(Cn3cncn3)cnc2C1C (stereo not drawn) | 50.5
Cc1nc(CN2C(=O)CCC23CCN(c2ncccc2C)CC3)cs1 | 33.3
CCOCC1CN(C(=O)c2ccco2)Cc2cnn(C)c21 (stereo not drawn) | -2.81
CS(=O)(=O)N[C@H]1COC[C@@H]2CN(Cc3ccco3)C[C@@H]21 | -5.39
CCC(C)N1CCc2nc(N3CCCC3)nc(NC(C)C)c2C1 (stereo not drawn) | -7.15
CC(C)CCN1C2(CCN(C(=O)N(C)C)C2)c2ccccc2S1(=O)=O (stereo not drawn) | -17.2
COCC1c2nnn(CC3CC3)c2CCN1C(=O)Cc1cccs1 (stereo not drawn) | -8.15
CCC(=O)N1CCC2(CC1)COc1ccccc1S(=O)(=O)N(C)C2 | -14.6
Cc1ncsc1CN1C[C@@H](OCC2CC2)[C@H]2OCCC[C@H]21 | -5.13
Cc1noc(C2CCC3(CCN(C(=O)C4=CCCCC4)CC3)O2)n1 (stereo not drawn) | -6.87
CCn1ncc2c1C(COC)CN(Cc1ccc(OC)cc1)C2 (stereo not drawn) | -5.26
CCC(=O)N1CCC2(COCc3c(C)nc(N(C)C)nc32)C1 (stereo not drawn) | 20.3
CCOCc1ncn2c1CN(C(=O)Nc1cccc(C)c1)CC2 | -6.82
Cc1ccc(N2CC[C@H](OCC3CC3)[C@@H]2Cc2cnn(C)c2)nn1 | 0.692
O=C(C1=CCCC1)N1C[C@H](Oc2cccnc2)[C@H]2OCCC[C@H]21 | -4.92
O=C(c1ccnnc1)N1C[C@H](Oc2cccnc2)[C@H]2OCCC[C@H]21 | 3.85
CCOC(=O)N1CCC2(CCNC2)C1 (stereo not drawn) | -5.56
Cc1ccc(N2CCc3c(CN(C)Cc4ccco4)cncc3C2)nn1 | -9.85
CC(C)N1CCC2(CCCN(c3nccc(C(F)(F)F)n3)C2)CC1 | -2.7
CN(C)C(=O)c1n[nH]c2c1CN(Cc1ccccn1)CC2 | -3.26

SMILES | cytotoxicity at 70.5 h [%]
c1cc(CN2CCC3(CCOCC3COCC3CC3)CC2)co1 (stereo not drawn) | -4.78
CCN1CCc2[nH]nc(C(=O)N3CCCC3C)c2C1 (stereo not drawn) | 4.99
CCN1CC(=O)NCC12CCN(C(=O)c1ccco1)C2 (stereo not drawn) | -3.25
Cc1ccc(C(=O)N2C[C@@H]3CCN(C(C)C)C[C@@H]3C2)cn1 | 0.492
Fc1ccc(CN2CCO[C@H]3[C@H](OCC4CCCC4)CC[C@@H]32)cc1 | -9.77
CN(C)CCNC(=O)C1Cc2nc(-c3ccccc3)sc2N1CC1CC1 (stereo not drawn) | -11
CN(C)CCNC(=O)C1Cc2nc(-c3ccsc3)sc2N1CC1CC1 (stereo not drawn) | -4.49
Cc1occc1C(=O)N1C[C@@H]2OCCN(c3ncccn3)[C@@H]2C1 | -11.6
Cn1cc(N2C(=O)CC[C@@H]3[C@H]2CCN3CC2CCOCC2)cn1 | -14.3
CC(=O)N1CCC(c2nc3ccc(-c4ccnn4C)cn3n2)CC1 | -12.4
O=C(c1ccoc1)N1C[C@@H]2OCCN(c3ncccn3)[C@@H]2C1 | 1.23
CN1CC(=O)N(c2ccccc2)CC12CCN(C(=O)c1cnccn1)C2 (stereo not drawn) | 22.8
O=C(C1CCC1)N1CCO[C@H]2[C@H](OCCCn3cccn3)CC[C@@H]21 | 29
Cc1cccc(CN2CCC3(CC2)NC(=O)C[C@H]3c2cnn(C)c2)n1 | -8.35
Cc1ccc(N2CC[C@H]3C[C@H](C(=O)NCc4ccco4)O[C@H]3C2)nn1 | -11.1
N#Cc1ccc(N2CCCC3(CCN(c4cccnc4)CC3)C2)cc1 | 51.2
CNC(=O)[C@H]1CO[C@H]2CCN(c3ncc(F)cn3)C[C@H]2C1 | -8.64
Cn1cc(C2CC(=O)NC23CCN(C(=O)Cc2ccccn2)CC3)cn1 (stereo not drawn) | -5.18
O=C(CC1CC1)N1CCO[C@H]2[C@H](OCCCn3cccn3)CC[C@@H]21 | -4.17
CN(C)C(=O)[C@H]1CO[C@H]2CCN(c3ncc(F)cn3)C[C@H]2C1 | -8.69
O=C(NCc1ccco1)[C@H]1C[C@@H]2CCN(c3ncccn3)C[C@H]2O1 | -5.11
O=C(Nc1cnccn1)[C@H]1CO[C@H]2CCN(c3ncc(F)cn3)C[C@H]2C1 | 15
Cc1ccc(N2CC[C@H]3C[C@H](C(=O)NCc4ccco4)O[C@@H]3C2)cc1 | 2.5
CCC(=O)N1CCC2(CC1)CN(CCO)Cc1ccccc12 | 1.97
Cc1ccc(CN2CCC3(CC2)CN(C(=O)c2cnccn2)CCO3)o1 | -6.5
c1cnc(N2C[C@@H]3COC[C@]3(COCC3CCCC3)C2)nc1 | -14.8

SMILES | cytotoxicity at 70.5 h [%]
CCc1ccc(CN2C[C@@H]3COC[C@H](NS(C)(=O)=O)[C@@H]3C2)o1 | -18.1
CN(C)C(=O)COC[C@]12COC[C@H]1CN(CC1CCC1)C2 | -6.61
O=C(c1ccoc1)N1CC[C@H]2OCC[C@@]2(COc2ncccc2F)C1 | -9.01
CCS(=O)(=O)N1C[C@H]2CN(Cc3cccnc3)C(=O)[C@H]2C1 | 16.7
CC(C)CNC(=O)[C@H]1CCS(=O)(=O)[C@@H]2CN(Cc3cccc(Cl)c3)C[C@H]12 | 24.3
c1nc2c(c(-c3ccsc3)n1)CCN(Cc1ccoc1)CC2 | 19.3
CN(C)C(=O)[C@@H]1CCO[C@@H]2CCN(Cc3ccccc3)C[C@@H]21 | -3.08
COc1ncccc1CN1CCc2[nH]nc(C(=O)N3CCCC3C)c2C1 (stereo not drawn) | -3.57
COCC1c2c(cnn2CC2CC2)CCN1Cc1ccc(C)o1 (stereo not drawn) | -8.01
Cn1cc(C2CC(=O)NC23CCN(Cc2ccncc2)CC3)cn1 (stereo not drawn) | 13.9
CN1CC(=O)N(c2cccnc2)CC12CCN(C(=O)c1cccn1C)C2 (stereo not drawn) | 1.98
Cc1nc2c(cc1C(=O)O)CCN(Cc1ccsc1)CC2 | -6.12
CNC(=O)[C@H]1C[C@@H]2CCN(Cc3ccncc3)C[C@H]2O1 | -6.07
COCCNC(=O)[C@H]1C[C@@H]2CCN(Cc3ccncc3)C[C@H]2O1 | -9.09
c1cncc(N2CCCC3(CCN(CCN4CCCC4)CC3)C2)c1 | -1.3
c1cnn(CCCO[C@@H]2CN(C3CCOCC3)[C@@H]3CCCO[C@@H]32)c1 | 4.39
O=C(Nc1cccnc1)[C@H]1CO[C@H]2CCNC[C@H]2C1 | 0.847
c1cnc(NC[C@H]2OC[C@@H]3CCN(Cc4ccsc4)C[C@@H]32)nc1 | -6.36
Cc1nc(CN2CCC3(CCN(Cc4nccn4C)CC3)C2=O)cs1 | -7.58
CC1c2ncc(CNC(=O)C3CC3)n2CCN1Cc1ccncc1 (stereo not drawn) | -16.1
Cn1cnc2c1C(COCC1CC1)CN(Cc1ccc3c(c1)OCO3)C2 (stereo not drawn) | 36.5
CN1[C@H](Cn2cncn2)C[C@@H]2CN(Cc3cccc(C#N)c3)CC[C@@H]21 | -6.46
c1cc(CN2CCO[C@H]3[C@H](OCCN4CCCC4)CC[C@@H]32)ccn1 | -11.7
Cc1cccc(CN2CC[C@@H]3[C@@H](CO[C@H]3CNc3ncccn3)C2)n1 | -8.04
O=C(NCC1CC1)C1CN(Cc2ccncc2)Cc2ccnn2C1 (stereo not drawn) | -11.9
